“Also recorded” adds a separate entry of the source. Like-named read-outs stand apart in the source and are kept apart here.
How the values were obtained:
[1] = cited from earlier work
intragastric acidity = conditions: cited from earlier work
[2] = cited from earlier work; remark: listed apart in the source
[3] = Dynamic/gravimetric vapour sorption (DVS/GVS) hygroscopicity; format: physicochemical; conditions: for hygroscopicity (in words): DVS/GVS at 25° C.
Experimental: Analyses were performed on an SMS DVS Advantage instrument. A few mg of the substance was added into an Al pan and exposed to stepwise RH changes according to 0-90-20% in steps of 10% RH, using open loop mode. The experiments were performed using a gas flow rate of 200 mL/min and at 25° C. The dm/dt criteria applied was 0.001 weight-%/min during a 5-minute window, with a maximum allowed time of 150 minutes and a minimum allowed time of 50 minutes for all steps except for the step at 0% RH, which had no criteria but was set to 6 h.
The hygroscopicity of Form A (as obtained from the synthesis described in Example 1), Form B (as obtained from a slurry in methanol/water 4:1) and Form C (as obtained from a slurry in ethanol) were investigated using GVS at 25° C. […] Form A can thus be classified as non-hygroscopic.
With a weight gain of about 3% at elevated humidities, it appears that a hydrate form is formed. Upon drying, Form B returned to the anhydrate; see FIGS. 12A and 12B, respectively.
Form C is thus classified as non-hygroscopic.

[4] = Thermogravimetric analysis (TGA) weight loss; format: physicochemical; conditions: heating up to 175° C.
Experimental: Analyses were performed on a PerkinElmer TGA8000 instrument. A few mg of sample was gently charged into open Pt-pans and analysed by weight in a flow of dry nitrogen gas (40 mL/min), to ensure an inert atmosphere. The sample was scanned from 25 to 200° C. using a continuous scan speed of 10° C./min.
This confirms that Form A is an anhydrate.

gastric acid = conditions: Phase I and II studies; cited from earlier work
clinical = conditions: human, in vivo
Experimental: Linaprazan glurate is a prodrug of linaprazan, which was disclosed in WO 99/55706 and previously studied in Phase I and II studies. […] A clinical Phase I study has shown that administration of a single dose of linaprazan glurate can maintain the intragastric acidity above pH 4 for 24 hours. Linaprazan glurate is therefore tailored for patients with severe erosive gastroesophageal reflux disease (eGERD).
Whereas the plasma concentration of linaprazan glurate is only very low and difficult to determine, the plasma concentration of linaprazan may be determined instead. […] It is estimated that this requires a minimal plasma concentration (Cmin) of linaprazan of at least about 240 nmol/L after 22 hours. At such doses, a once daily oral administration of the formulation would be sufficient. In some embodiments, therefore, a single unit dose of a pharmaceutical composition of linaprazan glurate provides a Cmin of linaprazan in a human of at least about 240 nmol/L after 22 hours following oral administration of the pharmaceutical composition to said human. In other embodiments, a daily administration of two unit doses of a pharmaceutical composition of linaprazan glurate provides a Cmin of linaprazan in a human of at least about 240 nmol/L after 10 hours following oral administration of the last unit dose of the pharmaceutical composition to said human.

[5] = GVS at 25° C., humidity range of 0-90%

In the case of `Cc1cccc(C)c1CNc1cc(C(=O)NCCOC(=O)CCCC(=O)O)cn2c(C)c(C)nc12` [Form A of the free base], the solubility in water ([1]; pH 1) is listed as “slightly soluble” and the solubility in water ([1]; pH 6.8) is listed as “practically insoluble”.

In the case of `Cc1cccc(C)c1CNc1cc(C(=O)NCCOC(=O)CCCC(=O)O)cn2c(C)c(C)nc12` [linaprazan glurate, 5-{2-[({8-[(2,6-dimethylbenzyl)amino]-2,3-dimethylimidazo[1,2-a]pyridine-6-yl}carbonyl)-amino]ethoxy}-5-oxopentanoic acid], the “control of gastric acid production” value (intragastric acidity; compared to linaprazan) is listed as “total control of the gastric acid production for a longer time”, the “time intragastric acidity maintained above pH 4” value (intragastric acidity; single dose, Phase I) is listed as 24 hours and the plasma concentration ([2]; after absorption) is listed as “only very low”. For the same compound, the “half-life in the body” value ([2]; compared to linaprazan) was “longer half-life” and the “metabolism after absorption into the blood stream” value ([2]; in vivo) was “quickly metabolized into linaprazan”.

For `Br.Cc1cccc(C)c1CNc1cc(C(=O)NCCOC(=O)CCCC(=O)O)cn2c(C)c(C)nc12` [Form C], the water content ([3]; DVS, at 90% RH) was “not more than 0.05%”, the “hygroscopicity (in words)” value [3] was “non-hygroscopic; also recorded: very low” and the water uptake [3, 5] was “about 0.05%”. The weight loss [4] was 0.2%.

For `Br.Cc1cccc(C)c1CNc1cc(C(=O)NCCOC(=O)CCCC(=O)O)cn2c(C)c(C)nc12` [Form B], the “hygroscopicity (in words)” value [3] was “significant water uptake with increasing humidity”, the weight gain ([3]; GVS at 25° C., elevated humidities) was “about 3%” and the weight loss [4] was 0.3%.

For `Br.Cc1cccc(C)c1CNc1cc(C(=O)NCCOC(=O)CCCC(=O)O)cn2c(C)c(C)nc12` [Form A], the water uptake ([3]; DVS, at 80% RH) was “about 0.15%”, the “hygroscopicity (in words)” value [3] was “non-hygroscopic; also recorded: very low hygroscopicity” and the water uptake [3, 5] was about 0.22%. The weight loss [4] was 0.3%.

For `Cc1cccc(C)c1CNc1cc(C(=O)NCCO)cn2c(C)c(C)nc12` [linaprazan], the “duration of acid inhibition” value (gastric acid) is given as “too short duration”, the “elimination from the body” value (gastric acid) is given as “quickly eliminated from the body” and the onset of action (gastric acid) is given as “fast onset of action”. The tolerability (gastric acid) was “well tolerated” and the concentration at 22 h (clinical) was at least 240 nM.

From US20260217705A1, “POLYMORPHS OF THE HYDROBROMIDE SALT OF LINAPRAZAN GLURATE” (CINCLUS PHARMA HOLDING AB (PUBL), priority 2023, published 2026)
